B1: tetrapeptide WWDW (peptide)
peptide: WWDW
B2: tetrapeptide WWTY (peptide)
peptide: WWTY
B3: tetrapeptide WRFF (peptide)
peptide: WRFF
B4: tetrapeptide WFSW (peptide)
peptide: WFSW
B5: tetrapeptide WRQF (peptide)
peptide: WRQF
B6: tetrapeptide WWNW (peptide)
peptide: WWNW
B7: tetrapeptide RWWD (peptide)
peptide: RWWD
B8: tetrapeptide YYWK (peptide)
peptide: YYWK

Residues, ends and D or L forms follow the SMILES beside them.

Sequence of ACE (P12821 30-1306, species assumed): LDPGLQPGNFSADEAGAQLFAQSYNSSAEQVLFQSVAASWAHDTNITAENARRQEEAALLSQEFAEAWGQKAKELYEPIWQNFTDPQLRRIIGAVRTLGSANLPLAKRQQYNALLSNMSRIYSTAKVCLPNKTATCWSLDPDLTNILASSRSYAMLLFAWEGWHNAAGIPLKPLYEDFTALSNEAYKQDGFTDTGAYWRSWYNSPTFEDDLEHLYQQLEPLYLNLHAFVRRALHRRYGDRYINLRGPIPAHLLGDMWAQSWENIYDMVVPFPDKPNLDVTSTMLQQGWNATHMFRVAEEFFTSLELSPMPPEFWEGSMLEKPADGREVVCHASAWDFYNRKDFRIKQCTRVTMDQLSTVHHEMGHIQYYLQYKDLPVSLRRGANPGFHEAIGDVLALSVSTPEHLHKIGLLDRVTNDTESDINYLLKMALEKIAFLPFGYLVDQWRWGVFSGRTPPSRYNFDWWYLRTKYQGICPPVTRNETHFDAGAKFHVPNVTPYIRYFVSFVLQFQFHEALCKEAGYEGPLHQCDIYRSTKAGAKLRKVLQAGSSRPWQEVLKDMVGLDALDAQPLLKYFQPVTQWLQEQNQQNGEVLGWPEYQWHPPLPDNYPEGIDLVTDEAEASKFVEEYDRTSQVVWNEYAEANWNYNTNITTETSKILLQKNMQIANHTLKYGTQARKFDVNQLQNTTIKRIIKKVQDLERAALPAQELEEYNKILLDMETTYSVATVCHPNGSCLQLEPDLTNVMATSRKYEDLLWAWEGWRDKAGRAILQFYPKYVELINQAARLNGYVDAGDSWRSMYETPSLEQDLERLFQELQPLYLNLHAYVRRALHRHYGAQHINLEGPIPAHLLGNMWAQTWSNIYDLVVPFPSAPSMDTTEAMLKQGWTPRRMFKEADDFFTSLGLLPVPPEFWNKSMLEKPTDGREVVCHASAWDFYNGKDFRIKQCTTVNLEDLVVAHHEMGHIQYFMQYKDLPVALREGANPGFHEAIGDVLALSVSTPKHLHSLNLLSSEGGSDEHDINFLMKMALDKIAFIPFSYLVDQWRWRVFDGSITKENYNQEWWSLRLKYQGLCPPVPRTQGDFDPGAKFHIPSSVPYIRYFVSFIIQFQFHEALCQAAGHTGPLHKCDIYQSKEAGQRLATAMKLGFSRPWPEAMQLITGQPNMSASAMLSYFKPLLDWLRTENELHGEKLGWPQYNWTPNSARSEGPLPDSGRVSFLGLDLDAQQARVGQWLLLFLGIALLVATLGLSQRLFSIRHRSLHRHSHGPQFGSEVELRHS
Sequence of Angiotensin-converting enzyme (ACE) (P12821 30-1306): as the sequence (P12821 30-1306, species assumed) above

One test concerns the target ACE (Homo sapiens, UniProt P12821). In words: Assay of ACE inhibitory activity (HHL hydrolysis, HPLC of hippuric acid). The conditions noted are these: in vitro; substrate HHL, borate buffer, 37 °C, 5 min coincubation with HHL, 30 min reaction, HCl stop; 7 concentrations; HPLC C18 at 228 nm; GraphPad Prism 7.0. It counts as biochemical. Here is the method:
IC50 refers to the semi-inhibitory concentration; here, the principle of in vitro IC50 determination of the potential ACE inhibitory peptide is that ACE can hydrolyse HHL into […] and dipeptide. HHL and tetrapeptide are competitive, and when ACE binds to the tetrapeptide, it will reduce the production of the product […]; the IC50 activity of the tetrapeptide is when it is reduced by half of the original concentration. The water bath temperature was controlled at 37 °C, and the initial mass concentration of each tetrapeptide was […]. The tetrapeptide was diluted with borate buffer solution into 7 concentration gradients, and coincubated with HHL buffer for 5 min. Then, the ACE solution was added to initiate the reaction, and the reaction was terminated by the addition of HCl after 30 min of system reaction. Afterwards, the reaction was analysed on a C18 column, with HPLC detection at 228 nm and an injection volume of 10 μL. The mobile phases were water and acetonitrile at 75% and 25%, respectively, with a flow rate of 1 mL/min, and isocratic elution for 7 min (acetonitrile and water containing 0.1% trifluoroacetic acid). ACE inhibition was calculated as ACE inhibition = ((b − c) − (a − c))/(b − c) × 100% (a: peak area of hippuric acid in the experimental group; b: peak area of hippuric acid in the blank group; c: peak area of hippuric acid in the control group), and the inhibition rate was converted into IC50 values by the software graphpad prism 7.0.
As for `NCC(=O)NCC(=O)N[C@@H](CO)C(=O)NCC(=O)O` [GGSG] (H-GGSG-OH), the IC50 was more than 5000 µM.

Turning to `N=C(N)NCCC[C@H](NC(=O)[C@@H](N)CCCNC(=N)N)C(=O)N[C@@H](Cc1ccc(O)cc1)C(=O)N[C@@H](CCC(N)=O)C(=O)O` [RRYQ] (H-RRYQ-OH), the IC50 is 115 ± 6.15 µM.

Take `N=C(N)NCCC[C@H](N)C(=O)N[C@@H](Cc1c[nH]c2ccccc12)C(=O)N[C@@H](Cc1c[nH]c2ccccc12)C(=O)N[C@@H](CC(=O)O)C(=O)O` [RWWD] (H-RWWD-OH): the IC50 came to 129 ± 8.32 µM.

Regarding `N[C@@H](CO)C(=O)NCC(=O)NCC(=O)NCC(=O)O` [SGGG] (H-SGGG-OH), the IC50 is more than 5000 µM.

For `CC(C)[C@H](NC(=O)[C@H](CCCNC(=N)N)NC(=O)[C@H](Cc1ccccc1)NC(=O)[C@@H](N)Cc1c[nH]c2ccccc12)C(=O)O` [WFRV] (H-WFRV-OH), the IC50 was 31.8 ± 0.83 µM.

As to `N[C@@H](Cc1c[nH]c2ccccc12)C(=O)N[C@@H](Cc1ccccc1)C(=O)N[C@@H](CO)C(=O)N[C@@H](Cc1c[nH]c2ccccc12)C(=O)O` [WFSW] (H-WFSW-OH), the 50% inhibitory concentration (IC50) stood at 148 ± 14.3 µM.

For the molecule `N=C(N)NCCC[C@H](NC(=O)[C@@H](N)Cc1c[nH]c2ccccc12)C(=O)N[C@@H](Cc1ccccc1)C(=O)N[C@@H](Cc1ccccc1)C(=O)O` [WRFF] (H-WRFF-OH), the IC50 is 141 ± 3.9 µM.

Regarding `N=C(N)NCCC[C@H](NC(=O)[C@@H](N)Cc1c[nH]c2ccccc12)C(=O)N[C@@H](CCC(N)=O)C(=O)N[C@@H](Cc1ccccc1)C(=O)O` [WRQF] (H-WRQF-OH), the IC50 amounted to 29.6 ± 6.75 µM.

For `N[C@@H](Cc1c[nH]c2ccccc12)C(=O)N[C@@H](Cc1c[nH]c2ccccc12)C(=O)N[C@@H](CC(=O)O)C(=O)N[C@@H](Cc1c[nH]c2ccccc12)C(=O)O` [WWDW] (H-WWDW-OH), the IC50 came to 36.8 ± 1.32 µM.

Regarding `NC(=O)C[C@H](NC(=O)[C@H](Cc1c[nH]c2ccccc12)NC(=O)[C@@H](N)Cc1c[nH]c2ccccc12)C(=O)N[C@@H](Cc1c[nH]c2ccccc12)C(=O)O` [WWNW] (H-WWNW-OH), the IC50 was 26.4 ± 3.81 µM.

In the case of `C[C@@H](O)[C@H](NC(=O)[C@H](Cc1c[nH]c2ccccc12)NC(=O)[C@@H](N)Cc1c[nH]c2ccccc12)C(=O)N[C@@H](Cc1ccc(O)cc1)C(=O)O` [WWTY] (H-WWTY-OH), the 50% inhibitory concentration (IC50) amounted to 28.5 ± 0.99 µM.

As for `NCCCC[C@H](NC(=O)[C@H](Cc1c[nH]c2ccccc12)NC(=O)[C@H](Cc1ccc(O)cc1)NC(=O)[C@@H](N)Cc1ccc(O)cc1)C(=O)O` [YYWK] (H-YYWK-OH), the IC50 turned out to be 20 ± 8.19 µM.

A further test concerns the target Angiotensin-converting enzyme (ACE) (UniProt P12821).
Assay: not given
Conditions: not given
Consider tetrapeptide RRYQ, for which the IC50 of inhibition of ACE activity (hydrolysis of HHL to hippuric acid, HPLC at 228 nm, 37 °C) came out at 115 µM.

In the case of tetrapeptide WFRV, the IC50 of inhibition of ACE activity (hydrolysis of HHL to hippuric acid, HPLC at 228 nm, 37 °C) amounted to 31.8 µM.

B1 came in with an IC50 of inhibition of ACE activity (hydrolysis of HHL to hippuric acid, HPLC at 228 nm, 37 °C) of 36.8 µM.

Regarding B2, the IC50 of inhibition of ACE activity (hydrolysis of HHL to hippuric acid, HPLC at 228 nm, 37 °C) was found to be 28.5 µM.

B3 had an IC50 of inhibition of ACE activity (hydrolysis of HHL to hippuric acid, HPLC at 228 nm, 37 °C) of 141 µM.

With B4, the IC50 of inhibition of ACE activity (hydrolysis of HHL to hippuric acid, HPLC at 228 nm, 37 °C) is 148 µM.

Consider B5, for which the IC50 of inhibition of ACE activity (hydrolysis of HHL to hippuric acid, HPLC at 228 nm, 37 °C) was 29.6 µM.

Molecule B6 came in with an IC50 of inhibition of ACE activity (hydrolysis of HHL to hippuric acid, HPLC at 228 nm, 37 °C) of 26.4 µM.

Take B7: the IC50 of inhibition of ACE activity (hydrolysis of HHL to hippuric acid, HPLC at 228 nm, 37 °C) was 129 µM.

For B8, the IC50 of inhibition of ACE activity (hydrolysis of HHL to hippuric acid, HPLC at 228 nm, 37 °C) is 20 µM.

The record behind these values is paper PMC10137938 (Foods, 2023).
